{"source": "patent US20230107128A1", "about": "“SCREENING SYSTEM FOR HUMAN-TRANSFORMED CARTILAGE CELL LINE-BASED CARTILAGE DISEASE TREATMENT AGENTS” (LUGEN SCI CO., LTD., priority 2018, published 2023)", "key": {"Col10a1": {"test_system": "Col10a1", "assay": "Rq-PCR of Col10a1 expression in C28/I2 micromass culture", "format": "cell-based, human", "settings": "10 μM, 14 days micromass culture", "experimental": "(§1) C28/I2 cell lines were subjected to micromass culture in order to compare and examine the change in the expression of Col2a1 and Sox9, which are the representative cartilage differentiation markers, and Col10, which is a cartilage hypertrophy marker, by treatment with the complex functional natural material 2-AQCA during long-term culture for inducing cartilage differentiation. For this purpose, the C28/I2 cells cultured for three days were collected and a cell fluid was prepared at a concentration of 2×10^7 cells/ml, and then 10 μl of cells were taken and injected into the center of a 24-well plate, and fixed in an incubator of 37° C., 5% CO2 for two to three hours until all the cells were attached to the bottom. When all the cells were fixed, 500 μl of serum culture fluid (DMEM/F12, 10% FBS, 1% penicillin, and streptomycin) was added and further cultured for seven hours or more. […]\n(§2) After completing the micromass culture for 14 days, RNA was isolated from each cell pellet by using TRIzol™, and cDNA was synthesized from the isolated RNA. The synthesized cDNA was compared and analyzed for expression of the corresponding gene through a real-time quantitative polymerase chain reaction (Rq-PCR) by using a specific primer for each gene. […]"}, "Col2a1": {"test_system": "Col2a1", "assay": "Rq-PCR of Col2a1 expression in C28/I2 micromass culture", "format": "cell-based, human", "settings": "10 μM, 14 days micromass culture", "experimental": "as §1, §2"}, "C28/I2 cell line": {"test_system": "C28/I2 cell line", "format": "cell-based, human", "experimental": "To confirm the effect of 2-AQCA on inhibiting a cell growth rate and the presence of toxicity, the cells to be analyzed (C28/I2 cell line and chondrocytes isolated from osteoarthritis patients) were seeded and fixed at an initial concentration of 10,000 cells per well in a 96-well plate 24 hours before the experiment, and the cells were subjected to starvation in serum-free culture fluid for seven hours on the following next day. After that, while the culture fluid was replaced with a serum culture fluid containing 10% FBS, the experimental groups were treated repeatedly three times with Kartogenin and 2-AQCA at each concentration and further cultured for 48 hours. The cells were treated with the test materials at each concentration of 0, 3.125, 6.25, 12.5, and 25 μM, which had been used to verify the effect of treatment at each of the concentrations. Similarly, in order to equalize the experimental conditions, the treatment was performed so that the final concentration of DMSO was 0.25% in all the experimental groups. […] Then, the absorbance of each cell was measured at 450 nm by using a TECAN SPARK multi-reader."}, "Sox9": {"test_system": "Sox9", "assay": "Rq-PCR of Sox9 expression in C28/I2 micromass culture", "format": "cell-based, human", "settings": "10 μM, 14 days micromass culture", "experimental": "as §1, §2"}, "[1]": {"test_system": "human type II collagen fusion promoter (Col2a1 promoter)", "assay": "Luciferase reporter screening system in C28/I2-EC2P-fLuc-CN5 cell line", "format": "cell-based", "settings": "for cartilage regeneration activity (luminescence) compared with Kartogenin; criterion equal to or higher than Kartogenin: 50 μM, 48 hours, screen of 37 natural products", "experimental": "All the experimental groups for the verification of the screening system according to the present invention and the search for novel cartilage regeneration materials were prepared by dissolving the same in dimethyl sulfoxide (DMSO) at the same concentration of 20 mM. The cells to be analyzed were seeded and fixed into a white-bottom 96-well plate, which was a plate exclusively used for luminescence analysis, at an initial concentration of 10,000 cells per well 24 hours before the experiment. On the following day, the cells were subjected to starvation in serum-free culture fluid (DMEM/F12 media) for seven hours. After that, while the culture fluid was replaced with the serum culture fluid [DMEM/F12, 10% FBS, 1% penicillin, and streptomycin], the experimental groups on natural products at each 20 mM were diluted 1/400, treated repeatedly three times, and further cultured for 48 hours.\nAfter further culturing the cells to be analyzed, which were treated with natural materials in above 5.1, for 48 hours, all the culture fluid was removed and replaced with a new culture fluid containing D-luciferin at a final concentration of 150 μg/ml and reacted at room temperature for five minutes. Then, the degree of light emission from each cell was measured by using the luminescence analysis function of the TECAN SPARK multi-reader.\nBy using the screening system for cartilage disease treatment agents according to the present invention, the pattern of changes in cartilage regeneration activity according to the treatment concentration of 2-AQCA was compared with the activity of Kartogenin, a positive control group of natural material."}, "[2]": {"settings": "C28/I2-EC2P-fLuc-CN5, drug 0 to 50 μM"}}, "note": "Entries after “also recorded” stand apart in the source; their conditions may differ. Read-outs that look alike come from different tables or passages of the source."}
{"smiles": "O=C(O)c1ccc2c(c1)C(=O)c1ccccc1C2=O", "note": "[2-AQCA, 2-anthraquinonecarboxylic acid]", "values": [{"measurement": "decrease in Col10a1 expression compared to the negative control group", "setting": "Col10a1", "result": "about 40%"}, {"measurement": "Col2a1 expression rate relative to the Kartogenin group", "setting": "Col2a1", "result": "about 4.2 times"}, {"measurement": "Col2a1 expression rate relative to the negative control group", "setting": "Col2a1", "result": 7.6, "unit": "times"}, {"measurement": "cell growth rate higher than that of Kartogenin", "setting": "C28/I2 cell line; C28/I2, 6.25 μM", "result": "about 11%"}, {"measurement": "cell growth rate higher than that of Kartogenin", "setting": "C28/I2 cell line; C28/I2, 12.5 μM", "result": "about 8.2%"}, {"measurement": "Sox9 expression relative to the negative control group", "setting": "Sox9", "result": "at least 2.1 times"}, {"measurement": "cartilage regeneration activity compared with Kartogenin", "setting": "[1]; 25 μM", "result": "slightly higher than that of Kartogenin"}, {"measurement": "cartilage regeneration activity (luminescence) compared with Kartogenin; criterion equal to or higher than Kartogenin", "setting": "[1]", "result": "complies with the above conditions"}, {"measurement": "cartilage regeneration activity compared with Kartogenin", "setting": "[1]; concentration of less than 25 μM", "result": "somewhat lower than that of Kartogenin"}]}
{"smiles": "O=C(O)c1ccccc1C(=O)Nc1ccc(-c2ccccc2)cc1", "note": "[Kartogenin]", "values": [{"measurement": "decrease in Col10a1 expression compared to the negative control group", "setting": "Col10a1", "result": "about 40%"}, {"measurement": "Sox9 expression relative to the negative control group", "setting": "Sox9", "result": "insignificant increase"}, {"measurement": "luciferase activity at 50 μM", "setting": "[1]; C28/I2-EC2P-fLuc-CN5, 50 μM", "result": "decreases the luciferase activity"}, {"measurement": "luciferase activity with increasing concentration", "setting": "[1]; [2]", "result": "increased as the concentration of both drugs is increased"}, {"measurement": "cytotoxicity indirectly suggested by the luciferase activity", "setting": "[1]; high concentration (50 μM)", "result": "has cytotoxicity at a high concentration"}]}
{"smiles": "Cn1ncc2c1-c1c(Oc3ccc(OCc4ccc5ccccc5n4)cc3)sc(C(N)=O)c1CC2", "note": "[TD-198946]", "values": [{"measurement": "cartilage regeneration activity (luminescence) compared with Kartogenin; criterion equal to or higher than Kartogenin", "setting": "[1]", "result": "higher than that of Kartogenin"}, {"measurement": "luciferase activity compared with Kartogenin", "setting": "[1]; [2]", "result": "higher than that of Kartogenin"}, {"measurement": "luciferase activity with increasing concentration", "setting": "[1]; [2]", "result": "increased as the concentration of both drugs is increased; also recorded: continuously increases the luciferase activity"}]}
